The text below walks through data of the supplement of paper PMC10307832.

Test in all cases: relative viability (nuclei count vs DMSO), 5 days (fraction); higher = more cells survive
Compound in the assay “CAP-232 + Palbociclib”: C[C@H]([C@@H](C(=O)N)NC(=O)[C@@H]1CSSC[C@@H](C(=O)N[C@H](C(=O)N[C@@H](C(=O)N[C@H](C(=O)N1)CCCCN)CC2=CNC3=CC=CC=C32)CC4=CC=C(C=C4)O)NC(=O)[C@@H](CC5=CC=CC=C5)N)O [CAP-232] + CC(=O)c1c(C)c2cnc(Nc3ccc(N4CCNCC4)cn3)nc2n(C2CCCC2)c1=O [Palbociclib] (partner 0.5 µM)
The method in brief:
(§1)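 Each reported value is a median over duplicate plates. It expresses relative viability: treated-well nuclei count divided by vehicle-well nuclei count. Lung cancer cell lines in 1536-well plates were dosed by pin tool a day after seeding, alone with one drug or with a fixed anchor-drug dose plus five library-drug doses (not always all listed) in √10 steps, and nuclei were counted after 5 days.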

Compound in the assay “CAP-232 + Pictilisib”: C[C@H]([C@@H](C(=O)N)NC(=O)[C@@H]1CSSC[C@@H](C(=O)N[C@H](C(=O)N[C@@H](C(=O)N[C@H](C(=O)N1)CCCCN)CC2=CNC3=CC=CC=C32)CC4=CC=C(C=C4)O)NC(=O)[C@@H](CC5=CC=CC=C5)N)O [CAP-232] + CS(=O)(=O)N1CCN(Cc2cc3nc(-c4cccc5[nH]ncc45)nc(N4CCOCC4)c3s2)CC1 [Pictilisib] (partner 1 µM)
In short, it runs like this: as §1

Compound in the assay “CAP-232 + Trametinib”: C[C@H]([C@@H](C(=O)N)NC(=O)[C@@H]1CSSC[C@@H](C(=O)N[C@H](C(=O)N[C@@H](C(=O)N[C@H](C(=O)N1)CCCCN)CC2=CNC3=CC=CC=C32)CC4=CC=C(C=C4)O)NC(=O)[C@@H](CC5=CC=CC=C5)N)O [CAP-232] + CC(=O)Nc1cccc(-n2c(=O)n(C3CC3)c(=O)c3c(Nc4ccc(I)cc4F)n(C)c(=O)c(C)c32)c1 [Trametinib] (partner 0.02 µM)
The method in brief:
as §1

Compound in the assay “CAP-232 + Luminespib”: C[C@H]([C@@H](C(=O)N)NC(=O)[C@@H]1CSSC[C@@H](C(=O)N[C@H](C(=O)N[C@@H](C(=O)N[C@H](C(=O)N1)CCCCN)CC2=CNC3=CC=CC=C32)CC4=CC=C(C=C4)O)NC(=O)[C@@H](CC5=CC=CC=C5)N)O [CAP-232] + CCNC(=O)c1noc(-c2cc(C(C)C)c(O)cc2O)c1-c1ccc(CN2CCOCC2)cc1 [Luminespib] (partner 0.01 µM)
In short, it runs like this: as §1

Compound in the assay “CAP-232 + Lapatinib”: C[C@H]([C@@H](C(=O)N)NC(=O)[C@@H]1CSSC[C@@H](C(=O)N[C@H](C(=O)N[C@@H](C(=O)N[C@H](C(=O)N1)CCCCN)CC2=CNC3=CC=CC=C32)CC4=CC=C(C=C4)O)NC(=O)[C@@H](CC5=CC=CC=C5)N)O [CAP-232] + CS(=O)(=O)CCNCc1ccc(-c2ccc3ncnc(Nc4ccc(OCc5cccc(F)c5)c(Cl)c4)c3c2)o1 [Lapatinib] (partner 2 µM)
In short, it runs like this:
as §1

As for NCI-H1437, the relative viability in the assay with CAP-232 + Palbociclib (first compound 0.4 µM) amounted to 0.293; with CAP-232 + Palbociclib (first compound 1.265 µM), 0.312; with CAP-232 + Palbociclib (first compound 4 µM), 0.315; with CAP-232 + Palbociclib (first compound 12.65 µM), 0.303; in the assay with CAP-232 + Pictilisib (first compound 0.4 µM), 0.38; in the assay with CAP-232 + Pictilisib (first compound 1.265 µM), 0.426. The relative viability with CAP-232 + Pictilisib (first compound 4 µM) turned out to be 0.515; with CAP-232 + Pictilisib (first compound 12.65 µM), 0.279; in the assay with CAP-232 + Trametinib (first compound 0.4 µM) it was 0.445; with CAP-232 + Trametinib (first compound 1.265 µM), 0.515; with CAP-232 + Trametinib (first compound 4 µM), 0.617; with CAP-232 + Trametinib (first compound 12.65 µM), 0.458. For the same cell line, the relative viability was 1.17 with CAP-232 + Luminespib (first compound 0.4 µM); 1.13 in the assay with CAP-232 + Luminespib (first compound 1.265 µM); 1.24 in the assay with CAP-232 + Luminespib (first compound 4 µM); 0.812 with CAP-232 + Luminespib (first compound 12.65 µM); 0.806 in the assay with CAP-232 + Lapatinib (first compound 0.4 µM); 0.853 with CAP-232 + Lapatinib (first compound 1.265 µM). Also, the relative viability with CAP-232 + Lapatinib (first compound 4 µM) amounted to 0.795; with CAP-232 + Lapatinib (first compound 12.65 µM), 0.583.
Regarding NCI-H1650, the relative viability amounted to 0.306 with CAP-232 + Palbociclib (first compound 0.4 µM); 0.304 in the assay with CAP-232 + Palbociclib (first compound 1.265 µM); 0.38 in the assay with CAP-232 + Palbociclib (first compound 4 µM); 0.243 in the assay with CAP-232 + Palbociclib (first compound 12.65 µM); 0.636 with CAP-232 + Pictilisib (first compound 0.4 µM); 0.578 with CAP-232 + Pictilisib (first compound 1.265 µM). Also, the relative viability with CAP-232 + Pictilisib (first compound 4 µM) was determined as 0.535; with CAP-232 + Pictilisib (first compound 12.65 µM) it was 0.154; in the assay with CAP-232 + Trametinib (first compound 0.4 µM), 0.631; with CAP-232 + Trametinib (first compound 1.265 µM), 0.557; with CAP-232 + Trametinib (first compound 4 µM), 0.54; with CAP-232 + Trametinib (first compound 12.65 µM) it was 0.215. In addition, the relative viability in the assay with CAP-232 + Luminespib (first compound 0.4 µM) was 0.195; with CAP-232 + Luminespib (first compound 1.265 µM) it was 0.197; with CAP-232 + Luminespib (first compound 4 µM), 0.214; with CAP-232 + Luminespib (first compound 12.65 µM), 0.126; in the assay with CAP-232 + Lapatinib (first compound 0.4 µM), 0.737; in the assay with CAP-232 + Lapatinib (first compound 1.265 µM), 0.788. Besides, the relative viability with CAP-232 + Lapatinib (first compound 4 µM) came out at 0.966; with CAP-232 + Lapatinib (first compound 12.65 µM), 0.214.
NCI-H1651: the relative viability was 0.561 with CAP-232 + Palbociclib (first compound 0.4 µM); 0.525 in the assay with CAP-232 + Palbociclib (first compound 1.265 µM); 0.511 in the assay with CAP-232 + Palbociclib (first compound 4 µM); 0.522 with CAP-232 + Palbociclib (first compound 12.65 µM); 0.666 in the assay with CAP-232 + Pictilisib (first compound 0.4 µM); 0.685 in the assay with CAP-232 + Pictilisib (first compound 1.265 µM). Besides, the relative viability with CAP-232 + Pictilisib (first compound 4 µM) was found to be 0.624; with CAP-232 + Pictilisib (first compound 12.65 µM), 0.368; with CAP-232 + Trametinib (first compound 0.4 µM) it was 0.902; with CAP-232 + Trametinib (first compound 1.265 µM), 0.803; with CAP-232 + Trametinib (first compound 4 µM), 0.836; with CAP-232 + Trametinib (first compound 12.65 µM), 0.784. Besides, the relative viability with CAP-232 + Luminespib (first compound 0.4 µM) came out at 1.12; with CAP-232 + Luminespib (first compound 1.265 µM) it was 0.95; with CAP-232 + Luminespib (first compound 4 µM), 0.867; in the assay with CAP-232 + Luminespib (first compound 12.65 µM), 0.506; in the assay with CAP-232 + Lapatinib (first compound 0.4 µM), 0.944; with CAP-232 + Lapatinib (first compound 1.265 µM), 0.834. Moreover, the values for the relative viability in the assay with CAP-232 + Lapatinib (first compound 4 µM) and with CAP-232 + Lapatinib (first compound 12.65 µM) were 0.913 and 0.484, respectively.
For NCI-H1666, the relative viability with CAP-232 + Palbociclib (first compound 0.4 µM) turned out to be 0.715; in the assay with CAP-232 + Palbociclib (first compound 1.265 µM) it was 0.636; with CAP-232 + Palbociclib (first compound 4 µM), 0.655; with CAP-232 + Palbociclib (first compound 12.65 µM), 0.67; in the assay with CAP-232 + Pictilisib (first compound 0.4 µM), 0.44; in the assay with CAP-232 + Pictilisib (first compound 4 µM), 0.356. The relative viability with CAP-232 + Pictilisib (first compound 12.65 µM) was determined as 0.248; with CAP-232 + Trametinib (first compound 0.4 µM) it was 0.699; with CAP-232 + Trametinib (first compound 1.265 µM), 0.859; with CAP-232 + Trametinib (first compound 4 µM) it was 0.924; in the assay with CAP-232 + Trametinib (first compound 12.65 µM), 0.734; with CAP-232 + Luminespib (first compound 0.4 µM), 1.03. For the same cell line, the relative viability in the assay with CAP-232 + Luminespib (first compound 1.265 µM) came out at 1.04; with CAP-232 + Luminespib (first compound 4 µM), 0.982; with CAP-232 + Luminespib (first compound 12.65 µM), 0.963; in the assay with CAP-232 + Lapatinib (first compound 0.4 µM), 0.687; in the assay with CAP-232 + Lapatinib (first compound 4 µM) it was 0.65; in the assay with CAP-232 + Lapatinib (first compound 12.65 µM), 0.378.
Take NCI-H1734: the relative viability in the assay with CAP-232 + Palbociclib (first compound 0.4 µM) amounted to 0.34; with CAP-232 + Palbociclib (first compound 1.265 µM), 0.336; with CAP-232 + Palbociclib (first compound 4 µM) it was 0.368; in the assay with CAP-232 + Palbociclib (first compound 12.65 µM) it was 0.233; in the assay with CAP-232 + Pictilisib (first compound 0.4 µM), 0.393; with CAP-232 + Pictilisib (first compound 1.265 µM), 0.44. The relative viability in the assay with CAP-232 + Pictilisib (first compound 4 µM) worked out at 0.455; with CAP-232 + Pictilisib (first compound 12.65 µM), 0.462; with CAP-232 + Trametinib (first compound 0.4 µM) it was 0.506; with CAP-232 + Trametinib (first compound 1.265 µM), 0.656; with CAP-232 + Trametinib (first compound 4 µM) it was 0.645; with CAP-232 + Trametinib (first compound 12.65 µM) it was 0.504. For the same cell line, the relative viability with CAP-232 + Luminespib (first compound 0.4 µM) amounted to 0.194; with CAP-232 + Luminespib (first compound 1.265 µM), 0.214; with CAP-232 + Luminespib (first compound 4 µM) it was 0.163; in the assay with CAP-232 + Luminespib (first compound 12.65 µM), 0.206; with CAP-232 + Lapatinib (first compound 0.4 µM), 1; with CAP-232 + Lapatinib (first compound 1.265 µM) it was 1. The relative viability worked out at 0.95 with CAP-232 + Lapatinib (first compound 4 µM) and 0.73 in the assay with CAP-232 + Lapatinib (first compound 12.65 µM).
For NCI-H1755, the relative viability in the assay with CAP-232 + Palbociclib (first compound 0.4 µM) came out at 0.474; with CAP-232 + Palbociclib (first compound 1.265 µM) it was 0.406; in the assay with CAP-232 + Palbociclib (first compound 4 µM) it was 0.48; with CAP-232 + Palbociclib (first compound 12.65 µM), 0.413; in the assay with CAP-232 + Pictilisib (first compound 0.4 µM), 0.379; in the assay with CAP-232 + Pictilisib (first compound 1.265 µM), 0.402. Also, the relative viability in the assay with CAP-232 + Pictilisib (first compound 4 µM) is 0.452; with CAP-232 + Pictilisib (first compound 12.65 µM), 0.415; with CAP-232 + Trametinib (first compound 0.4 µM), 0.765; in the assay with CAP-232 + Trametinib (first compound 1.265 µM), 0.724; with CAP-232 + Trametinib (first compound 4 µM), 0.792; with CAP-232 + Trametinib (first compound 12.65 µM) it was 0.771. Further, the relative viability with CAP-232 + Luminespib (first compound 0.4 µM) came out at 0.419; in the assay with CAP-232 + Luminespib (first compound 1.265 µM) it was 0.612; with CAP-232 + Luminespib (first compound 4 µM), 0.329; in the assay with CAP-232 + Luminespib (first compound 12.65 µM) it was 0.383; in the assay with CAP-232 + Lapatinib (first compound 0.4 µM) it was 1.13; with CAP-232 + Lapatinib (first compound 1.265 µM) it was 0.984. Also, the relative viability with CAP-232 + Lapatinib (first compound 4 µM) was determined as 1.23; in the assay with CAP-232 + Lapatinib (first compound 12.65 µM) it was 1.02.
As to NCI-H1792, the relative viability in the assay with CAP-232 + Palbociclib (first compound 0.4 µM) is 0.893; with CAP-232 + Palbociclib (first compound 1.265 µM), 0.694; with CAP-232 + Palbociclib (first compound 4 µM) it was 0.669; with CAP-232 + Palbociclib (first compound 12.65 µM), 0.545; with CAP-232 + Pictilisib (first compound 0.4 µM), 0.26; with CAP-232 + Pictilisib (first compound 1.265 µM), 0.323. The relative viability with CAP-232 + Pictilisib (first compound 4 µM) came out at 0.3; in the assay with CAP-232 + Pictilisib (first compound 12.65 µM), 0.204; with CAP-232 + Trametinib (first compound 0.4 µM) it was 0.516; with CAP-232 + Trametinib (first compound 1.265 µM), 0.443; with CAP-232 + Trametinib (first compound 4 µM) it was 0.474; with CAP-232 + Trametinib (first compound 12.65 µM), 0.415. In addition, the relative viability with CAP-232 + Luminespib (first compound 0.4 µM) was determined as 0.375; with CAP-232 + Luminespib (first compound 1.265 µM), 0.445; with CAP-232 + Luminespib (first compound 4 µM) it was 0.371; with CAP-232 + Luminespib (first compound 12.65 µM) it was 0.279; in the assay with CAP-232 + Lapatinib (first compound 0.4 µM), 1.48; with CAP-232 + Lapatinib (first compound 1.265 µM), 0.917. Moreover, the values for the relative viability in the assay with CAP-232 + Lapatinib (first compound 4 µM) and in the assay with CAP-232 + Lapatinib (first compound 12.65 µM) were 0.95 and 0.856, respectively.
